# According to ChEMBL document CHEMBL1201862, “PubChem BioAssay data set” (2004):
#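 96-well plates; 48 h exposure; 5 concentrations. Endpoints by linear interpolation between flanking doses. Not reached: highest tested concentration assigned. At the GI50, growth is halved.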 The source made the active and inactive calls. No stated cut-off is given here; in the data, active = GI50 up to about 1.1 µM and inactive = higher.
# Legend:
# Test in all cases: growth of human tumour cells (NCI), 48 h
# UO-31 = system: UO-31
# KM12 = system: KM12
# HOP-62 = system: HOP-62
# HOP-92 = system: HOP-92
# OVCAR-8 = system: OVCAR-8
# HCC 2998 = system: HCC 2998
# ACHN = system: ACHN
# OVCAR-3 = system: OVCAR-3
# KM-20L2 = system: KM-20L2
# HCT-15 = system: HCT-15
# NCI-H522 = system: NCI-H522
# RXF 393 = system: RXF 393
# DMS-273 = system: DMS-273
# TK-10 = system: TK-10
# IGROV-1 = system: IGROV-1
# OVCAR-4 = system: OVCAR-4
# CCRF-CEM = system: CCRF-CEM
# 786-0 = system: 786-0
# M14 = system: M14
# XF498 = system: XF498
# DLD-1 = system: DLD-1
# LOX IMVI = system: LOX IMVI
# DMS-114 = system: DMS-114
# HL-60 = system: HL-60
# UACC-62 = system: UACC-62
# NCI-H460 = system: NCI-H460
# SF-268 = system: SF-268
# NCI-H226 = system: NCI-H226
# MOLT-4 = system: MOLT-4
# SK-MEL-5 = system: SK-MEL-5
# A549 = system: A549
# OVCAR-5 = system: OVCAR-5
# CAKI-1 = system: CAKI-1
# SR = system: SR
# A498 = system: A498
# NCI-H23 = system: NCI-H23
# Malme-3M = system: Malme-3M
# LXFL 529 = system: LXFL 529
# SK-MEL-28 = system: SK-MEL-28
# UACC-257 = system: UACC-257
# SK-MEL-2 = system: SK-MEL-2
# HCT-116 = system: HCT-116
# HOP-18 = system: HOP-18
# SNB-78 = system: SNB-78
# K562 = system: K562
# SF-539 = system: SF-539
# HT-29 = system: HT-29
# SN12C = system: SN12C
# SNB-19 = system: SNB-19
# SF-295 = system: SF-295
# M19-MEL = system: M19-MEL
# EKVX = system: EKVX
# U-251 = system: U-251
# SNB-75 = system: SNB-75
# RPMI-8226 = system: RPMI-8226
# SK-OV-3 = system: SK-OV-3
# SW-620 = system: SW-620
# COLO 205 = system: COLO 205
smiles,measurement,setting,value
COC(=O)C(/C(=N/NC(N)=O)C(=O)Nc1c(C)cccc1C(C)(C)C)c1nc2ccc(Cl)cc2nc1O (stereo not given),GI50,UO-31,> 100 µM (inactive)
same,GI50,KM12,> 100 µM (inactive)
same,GI50,HOP-62,> 100 µM (inactive)
same,GI50,HOP-92,> 100 µM (inactive)
same,GI50,OVCAR-8,> 100 µM (inactive)
same,GI50,HCC 2998,> 100 µM (inactive)
same,GI50,ACHN,> 100 µM (inactive)
same,GI50,OVCAR-3,> 100 µM (inactive)
same,GI50,KM-20L2,> 100 µM (inactive)
same,GI50,HCT-15,> 100 µM
same,GI50,NCI-H522,> 100 µM (inactive)
same,GI50,RXF 393,> 100 µM (inactive)
same,GI50,DMS-273,> 100 µM (inactive)
same,GI50,TK-10,> 100 µM (inactive)
same,GI50,IGROV-1,> 100 µM (inactive)
same,GI50,OVCAR-4,> 100 µM (inactive)
same,GI50,CCRF-CEM,> 100 µM (inactive)
same,GI50,786-0,> 100 µM (inactive)
same,GI50,M14,> 100 µM (inactive)
same,GI50,XF498,> 100 µM (inactive)
same,GI50,DLD-1,> 100 µM (inactive)
same,GI50,LOX IMVI,> 100 µM (inactive)
same,GI50,DMS-114,> 100 µM (inactive)
same,GI50,HL-60,> 100 µM (inactive)
same,GI50,UACC-62,> 100 µM (inactive)
same,GI50,NCI-H460,> 100 µM (inactive)
same,GI50,SF-268,> 100 µM (inactive)
same,GI50,NCI-H226,> 100 µM (inactive)
same,GI50,MOLT-4,> 100 µM (inactive)
same,GI50,SK-MEL-5,> 100 µM (inactive)
same,GI50,A549,> 100 µM (inactive)
same,GI50,OVCAR-5,> 100 µM (inactive)
same,GI50,CAKI-1,> 100 µM (inactive)
same,GI50,SR,37.5 µM (inactive)
same,GI50,A498,> 100 µM (inactive)
same,GI50,NCI-H23,> 100 µM (inactive)
same,GI50,Malme-3M,> 100 µM (inactive)
same,GI50,LXFL 529,> 100 µM (inactive)
same,GI50,SK-MEL-28,> 100 µM (inactive)
same,GI50,UACC-257,> 100 µM (inactive)
same,GI50,SK-MEL-2,> 100 µM (inactive)
same,GI50,HCT-116,> 100 µM (inactive)
same,GI50,HOP-18,> 100 µM (inactive)
same,GI50,SNB-78,> 100 µM (inactive)
same,GI50,K562,> 100 µM (inactive)
same,GI50,SF-539,> 100 µM (inactive)
same,GI50,HT-29,> 100 µM (inactive)
same,GI50,SN12C,> 100 µM (inactive)
same,GI50,SNB-19,> 100 µM (inactive)
same,GI50,SF-295,> 100 µM (inactive)
same,GI50,M19-MEL,> 100 µM (inactive)
same,GI50,EKVX,75.5 µM (inactive)
same,GI50,U-251,> 100 µM (inactive)
same,GI50,SNB-75,> 100 µM (inactive)
same,GI50,RPMI-8226,> 100 µM (inactive)
same,GI50,SK-OV-3,> 100 µM (inactive)
same,GI50,SW-620,> 100 µM (inactive)
OC1[C@H]([C@H]2CCCC[C@@H]2O)CCC[C@@H]1[C@@H]1CCCC[C@H]1O (stereo not given in full),GI50,UO-31,> 100 µM (inactive)
same,GI50,KM12,> 100 µM (inactive)
same,GI50,COLO 205,> 100 µM (inactive)
same,GI50,HOP-62,> 100 µM (inactive)
same,GI50,HOP-92,> 100 µM (inactive)
same,GI50,OVCAR-8,> 100 µM (inactive)
same,GI50,HCC 2998,> 100 µM (inactive)
same,GI50,ACHN,> 100 µM (inactive)
same,GI50,OVCAR-3,> 100 µM (inactive)
same,GI50,KM-20L2,> 100 µM (inactive)
same,GI50,HCT-15,> 100 µM
same,GI50,NCI-H522,> 100 µM (inactive)
same,GI50,RXF 393,> 100 µM (inactive)
same,GI50,DMS-273,> 100 µM (inactive)
same,GI50,TK-10,> 100 µM (inactive)
same,GI50,IGROV-1,> 100 µM (inactive)
same,GI50,OVCAR-4,> 100 µM (inactive)
same,GI50,CCRF-CEM,> 100 µM (inactive)
same,GI50,786-0,> 100 µM (inactive)
same,GI50,M14,> 100 µM (inactive)
same,GI50,XF498,> 100 µM (inactive)
same,GI50,DLD-1,> 100 µM (inactive)
same,GI50,LOX IMVI,> 100 µM (inactive)
same,GI50,DMS-114,> 100 µM (inactive)
same,GI50,HL-60,> 100 µM (inactive)
same,GI50,UACC-62,> 100 µM (inactive)
same,GI50,NCI-H460,> 100 µM (inactive)
same,GI50,SF-268,> 100 µM (inactive)
same,GI50,NCI-H226,> 100 µM (inactive)
same,GI50,MOLT-4,> 100 µM (inactive)
same,GI50,SK-MEL-5,> 100 µM (inactive)
same,GI50,A549,> 100 µM (inactive)
same,GI50,OVCAR-5,> 100 µM (inactive)
same,GI50,CAKI-1,> 100 µM (inactive)
same,GI50,SR,> 100 µM (inactive)
same,GI50,A498,> 100 µM (inactive)
same,GI50,NCI-H23,> 100 µM (inactive)
same,GI50,Malme-3M,> 100 µM (inactive)
same,GI50,LXFL 529,> 100 µM (inactive)
same,GI50,SK-MEL-28,> 100 µM (inactive)
same,GI50,UACC-257,> 100 µM (inactive)
same,GI50,SK-MEL-2,> 100 µM (inactive)
same,GI50,HCT-116,> 100 µM (inactive)
same,GI50,HOP-18,> 100 µM (inactive)
same,GI50,SNB-78,48.2 µM (inactive)
same,GI50,K562,> 100 µM (inactive)
same,GI50,SF-539,> 100 µM (inactive)
same,GI50,HT-29,> 100 µM (inactive)
same,GI50,SN12C,> 100 µM (inactive)
same,GI50,SNB-19,> 100 µM (inactive)
same,GI50,SF-295,> 100 µM (inactive)
same,GI50,M19-MEL,> 100 µM (inactive)
same,GI50,EKVX,> 100 µM (inactive)
same,GI50,U-251,> 100 µM (inactive)
same,GI50,SNB-75,> 100 µM (inactive)
same,GI50,RPMI-8226,> 100 µM (inactive)
same,GI50,SK-OV-3,> 100 µM (inactive)
same,GI50,SW-620,> 100 µM (inactive)
